Results reported in US20080175831A1 (priority 2006, published 2008).

Columns and labels:
[1] = tested on: C3Heb/FeJ strain of Kv1.1 knockouts; test: Status epilepticus induced with kainate, three-stage injection protocol; format: in vivo, mouse
Experimental: A three-stage injection protocol is employed to induce status epilepticus with kainate. Mice are given 10 mg/kg (in pH 7.4 saline) of kainate subcutaneously, after which they begin electroclinical seizure activity. An additional 5 mg/kg is administered 30 minutes after behavioral seizure initiation, followed by another 5 mg/kg dose sc after another 30 minutes. This protocol has previously provided a high survivability rate (greater than 90%) in the C3Heb/FeJ strain of Kv1.1 knockouts, and to moreover sustain the status for at least a 2-hour duration. Behavioral seizure scoring is conducted using a modified Racine scale, and cumulative seizure scores are generated for each animal (a seizure score is given every minute, with the highest numerical value based on the Racine scale; then the cumulative score is generated by adding all the individual scores for each minute of seizure activity).

[2] = tested on: Kv1.1 mutant mice; test: Neural damage in the hippocampus assessed with FluoroJade B staining after systemic treatment; format: in vivo, mouse; details: blood flow suppressor 7-nitroindazole 50 mg/kg IP; blood flow enhancer acetazolamide 30 mg/kg IP
Experimental: Ictal hyperemia and/or ischemia leads to neuronal damage. The contribution of ictal blood flow to neural damage (assessed with Fluorojade B staining) is determined by measuring the neural damage in the hippocampus, as a function of systemic treatment with a blood flow suppressor (e.g., 7-nitroindazole; 50 mg/kg IP) and a blood flow enhancer (e.g., acetazolamide; 30 mg/kg IP).
Ictal hyperemia and/or ischemia leads to neuronal damage. The contribution of ictal blood flow to neural damage is assessed with FluoroJade B staining to measure the neural damage in the hippocampus, as a function of systemic treatment with a blood flow suppressor (7-nitroindazole; 50 mg/kg IP) and enhancer (acetazolamide; 30 mg/kg IP).
Ten minutes before imaging blood flow, drugs will be administered by IP injection at a volume of 0.01 ml per g of body weight. […]
The staining solution is made with 0.01% stock solution of FluoroJade B (Histo-Chem. Inc., Jefferson Ark.) in distilled water (final dye concentration of 0.0004%). […] The tissue representing the hippocampus is then examined using epifluorescence microscopy with blue (450-490 nm) excitation light: the position of the imaging focus is localized by the red Di-I track from the cannula, and neuronal damage is assessed by FluoroJade B staining colored green. […]

[3] = tested on: Kv1.1 mutants; details: 30 mg/kg IP; cited from earlier work
[4] = tested on: seizures; details: in vivo; cited from earlier work
[5] = kainate 10 mg/kg sc, then 5 mg/kg and 5 mg/kg at 30 minute intervals

Row | Compound | duration of sustained status epilepticus [1, 5] [h] | survivability rate [1, 5] | neural damage after kainate-induced status epilepticus (FIGS. 6A-6B) ([1]; mouse, FluoroJade B) | neural damage in the hippocampus (FluoroJade B staining) [2] | effect on blood flow [3] | effect on seizures [4]
1 | C=C(C)[C@H]1CN[C@H](C(=O)O)[C@H]1CC(=O)O [kainate] | ≥ 2 | greater than 90% | statistically significant effects of neural damage | – | – | –
2 | O=[N+]([O-])c1cccc2cn[nH]c12 [7-nitroindazole] | – | – | – | less neural damage | – | –
3 | CC(=O)Nc1nnc(S(N)(=O)=O)s1 [acetazolamide] | – | – | – | increased neural damage | increased blood flow | reduce seizures
